Numbering of substitutions follows the chain as printed.
Columns and labels:
Test in all cases: isothermal titration calorimetry, single-site fit
Type in all cases: binding
rOBP1 (rOBP1-wt) [1] = target: T1, rOBP1 (rOBP1-wt) (Rattus norvegicus, UniProt P08937, S50C/Y98C, form not given); conditions: 50 mM sodium phosphate, pH 7.5, 25 °C
T1 construct: gene Obp1f; S7
T1 sequence (P08937 16-172 S50C/Y98C): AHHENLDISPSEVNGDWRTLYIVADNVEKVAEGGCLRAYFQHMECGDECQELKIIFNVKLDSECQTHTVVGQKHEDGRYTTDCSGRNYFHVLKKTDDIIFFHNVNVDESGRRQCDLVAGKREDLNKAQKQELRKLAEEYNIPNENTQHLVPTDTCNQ

rOBP1 (rOBP1-wt) [2] = target: T2, rOBP1 (rOBP1-wt) (Rattus norvegicus, UniProt P08937); conditions: 50 mM sodium phosphate, pH 7.5, 25 °C
T2 construct: gene Obp1f; S7
T2 sequence (P08937 16-172): T1 sequence (P08937 16-172 S50C/Y98C) with C35S, C83Y

rOBP1 (rOBP1-wt) [3] = target: T2, rOBP1 (rOBP1-wt); conditions: 50 mM sodium phosphate, pH 7.5, 25 °C; ligand up to the millimolar range; distal allosteric position

Kd (rOBP1 (rOBP1-wt) [2])	SMILES	binding (ITC) (rOBP1 (rOBP1-wt) [1])	binding (ITC) (rOBP1 (rOBP1-wt) [3])
441 nM	Cc1ccc(C(C)C)c(O)c1 [thymol]	total loss of binding for the three odorants as no heat change was observed	indicating a complete loss of affinity for all ligands
60 nM	C=CCc1ccc(O)c(OC)c1 [eugenol]	total loss of binding for the three odorants as no heat change was observed	indicating a complete loss of affinity for all ligands
